Results: patent publication US12539292B2, “BRM targeting compounds and associated methods of use” (Arvinas Operations, Inc., priority 2018, dated 2026)
Read-outs that look alike come from different tables or passages of the source.

Target: T1, BRM (Homo sapiens, UniProt P51531)
T1 construct: In-Cell Western Screen of BRM Degradation in SW1573 Cells; endogenous in cells; host or cells: SW1573
Assay: In-cell Western screen of BRM degradation in SW1573 cells (Dmax and DC50)
Format: cell-based
Method in brief: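 Overnight compound treatment (18-20 h, final DMSO 0.1%) of SW1573 cells in DMEM with 10% FBS precedes fixation and in-cell Western staining with 800/680 nm dye-labelled secondaries. Plate images give DC50 and maximal degradation.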

[1] = BRM degradation, SW1573 cells, read-out: DC50
[2] = BRM degradation, SW1573 cells, when tested at the top concentration of between 0.3 and 10 μM, read-out: Dmax (%) (% degraded)
[3] = SW1573, % degraded, when tested at the top concentration of between 0.3 and 10 μM, read-out: BRM Dmax (%)
[4] = BRM degradation, SW1573 cells, Table 2D, read-out: **Dmax (%) (% degraded)
[5] = BRM degradation, SW1573 cells, Table 2D, read-out: *DC50
[6] = target protein degradation, read-out: BRM DC50

T1 sequence (P51531 whole entry): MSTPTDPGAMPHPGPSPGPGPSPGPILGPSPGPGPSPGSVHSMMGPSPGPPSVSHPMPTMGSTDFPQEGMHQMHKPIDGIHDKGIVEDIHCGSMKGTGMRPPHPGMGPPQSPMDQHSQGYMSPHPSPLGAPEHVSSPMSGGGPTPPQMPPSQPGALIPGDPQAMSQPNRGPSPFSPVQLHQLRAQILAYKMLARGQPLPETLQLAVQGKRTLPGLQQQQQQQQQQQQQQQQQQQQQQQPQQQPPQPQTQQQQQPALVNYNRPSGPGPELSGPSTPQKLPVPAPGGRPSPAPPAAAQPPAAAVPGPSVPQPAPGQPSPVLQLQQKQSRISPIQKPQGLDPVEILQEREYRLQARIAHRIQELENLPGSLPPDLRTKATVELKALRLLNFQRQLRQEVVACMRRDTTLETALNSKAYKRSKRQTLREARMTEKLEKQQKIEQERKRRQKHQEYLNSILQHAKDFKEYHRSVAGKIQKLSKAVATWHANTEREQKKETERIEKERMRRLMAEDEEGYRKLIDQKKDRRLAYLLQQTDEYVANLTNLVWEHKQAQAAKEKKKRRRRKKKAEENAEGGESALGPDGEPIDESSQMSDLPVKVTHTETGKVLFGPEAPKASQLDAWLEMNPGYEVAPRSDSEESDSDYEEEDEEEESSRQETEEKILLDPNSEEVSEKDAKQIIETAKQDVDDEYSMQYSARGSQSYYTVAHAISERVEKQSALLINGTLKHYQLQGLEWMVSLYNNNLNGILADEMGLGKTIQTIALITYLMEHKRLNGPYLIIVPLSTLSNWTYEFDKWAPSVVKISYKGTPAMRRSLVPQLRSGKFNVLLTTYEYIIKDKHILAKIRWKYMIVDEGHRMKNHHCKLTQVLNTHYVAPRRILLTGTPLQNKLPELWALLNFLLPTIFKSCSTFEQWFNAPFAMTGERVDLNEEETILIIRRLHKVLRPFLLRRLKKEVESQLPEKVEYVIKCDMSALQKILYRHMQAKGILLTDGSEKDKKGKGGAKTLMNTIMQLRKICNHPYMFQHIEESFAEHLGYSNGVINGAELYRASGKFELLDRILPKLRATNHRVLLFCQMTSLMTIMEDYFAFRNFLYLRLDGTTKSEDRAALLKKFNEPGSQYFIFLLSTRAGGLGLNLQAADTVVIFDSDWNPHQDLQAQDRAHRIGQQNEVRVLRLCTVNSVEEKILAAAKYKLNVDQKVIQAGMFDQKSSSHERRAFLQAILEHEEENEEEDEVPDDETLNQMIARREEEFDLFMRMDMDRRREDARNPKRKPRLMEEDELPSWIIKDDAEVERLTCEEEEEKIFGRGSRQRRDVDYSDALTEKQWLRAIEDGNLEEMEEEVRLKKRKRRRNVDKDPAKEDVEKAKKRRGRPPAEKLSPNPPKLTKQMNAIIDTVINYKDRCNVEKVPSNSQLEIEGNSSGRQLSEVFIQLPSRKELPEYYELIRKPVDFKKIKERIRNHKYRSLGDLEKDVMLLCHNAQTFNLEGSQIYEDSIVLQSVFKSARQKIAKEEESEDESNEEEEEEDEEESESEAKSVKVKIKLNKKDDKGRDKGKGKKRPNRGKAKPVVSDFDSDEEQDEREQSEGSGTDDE

Row | Structure (SMILES) | DC50 [1] [nM] | Dmax [3] [%] | DC50 [6] [nM] | other results
1 | Cc1ncsc1-c1ccc([C@H](C)NC(=O)[C@@H]2C[C@@H](O)CN2C(=O)[C@@H](NC(=O)COC2CN(CCN3CCN(CCCc4cc(N5C6CCC5CN(c5cc(-c7ccccc7O)nnc5N)C6)ccn4)CC3)C2)C(C)(C)C)cc1 [compound 49, (2S,4R)-1-((2S)-2-(2-((1-(2-(4-(3-(4-(3-(3-amino-6-(2-hydroxyphenyl)pyridazin-4-yl)-3,8-diazabicyclo[3.2.1]octan-8-yl)pyridin-2-yl)propyl)piperazin-1-yl)ethyl)azetidin-3-yl)oxy)acetamido)-3,3-dimethylbutanoyl)-4-hydroxy-N-((S)-1-(4-(4-methylthiazol-5-yl)phenyl)ethyl)pyrrolidine-2-carboxamide] | > 30 | – | – | Dmax [2]: 50 to 75%
2 | Cc1ncsc1-c1ccc([C@H](C)NC(=O)[C@@H]2C[C@@H](O)CN2C(=O)[C@@H](c2cc(OCCN3CCN(CCO[C@H]4C[C@H](Oc5cc(N6C7CCC6CN(c6cc(-c8ccccc8O)nnc6N)C7)ccn5)C4)CC3)no2)C(C)C)cc1 [compound 408, (2S,4R)-1-((2R)-2-(3-(2-(4-(2-((1r,3r)-3-((4-(3-(3-amino-6-(2-hydroxyphenyl)pyridazin-4-yl)-3,8-diazabicyclo[3.2.1]octan-8-yl)pyridin-2-yl)oxy)cyclobutoxy)ethyl)piperazin-1-yl)ethoxy)isoxazol-5-yl)-3-methylbutanoyl)-4-hydroxy-N-((S)-1-(4-(4-methylthiazol-5-yl)phenyl)ethyl)pyrrolidine-2-carboxamide] | – | > 75 | – | DC50 (degradation of BRM, read-out: BRM DC50): < 2.5 nM
3 | Cc1cc([C@H](C(=O)N2C[C@H](O)C[C@H]2C(=O)N[C@@H](COCCCCCc2cc(-c3ccccc3O)nnc2N)c2ccc(-c3scnc3C)cc2)C(C)C)on1 [compound 530, (2S,4R)-N-((R)-2-((5-(3-amino-6-(2-hydroxyphenyl)pyridazin-4-yl)pentyl)oxy)-1-(4-(4-methylthiazol-5-yl)phenyl)ethyl)-4-hydroxy-1-((R)-3-methyl-2-(3-methylisoxazol-5-yl)butanoyl)pyrrolidine-2-carboxamide] | – | – | – | DC50 (BRM degradation, read-out: BRM DC50): > 30 nM
4 | COc1cc(-c2scnc2C)ccc1CNC(=O)[C@@H]1C[C@@H](O)CN1C(=O)[C@H](c1cc(OCCN2CCC(O[C@H]3C[C@H](Oc4cc(N5C6CCC5CN(c5cc(-c7ccccc7O)nnc5N)C6)ccn4)C3)CC2)no1)C(C)C [compound 214, (2S,4R)-1-((2S)-2-(3-(2-(4-((1r,3S)-3-((4-(3-(3-amino-6-(2-hydroxyphenyl)pyridazin-4-yl)-3,8-diazabicyclo[3.2.1]octan-8-yl)pyridin-2-yl)oxy)cyclobutoxy)piperidin-1-yl)ethoxy)isoxazol-5-yl)-3-methylbutanoyl)-4-hydroxy-N-(2-methoxy-4-(4-methylthiazol-5-yl)benzyl)pyrrolidine-2-carboxamide] | > 30 | – | – | –
5 | Cc1ncsc1-c1ccc([C@H](C)NC(=O)[C@@H]2C[C@@H](O)CN2C(=O)[C@@H](c2cc(OCCN3CCN(CCOc4cc(N5C6CCC5CN(c5cc(-c7ccccc7O)nnc5N)C6)ccn4)[C@@H](C)C3)no2)C(C)C)cc1 [compound 140, (2S,4R)-1-((2R)-2-(3-(2-((3S)-4-(2-((4-(3-(3-amino-6-(2-hydroxyphenyl)pyridazin-4-yl)-3,8-diazabicyclo[3.2.1]octan-8-yl)pyridin-2-yl)oxy)ethyl)-3-methylpiperazin-1-yl)ethoxy)isoxazol-5-yl)-3-methylbutanoyl)-4-hydroxy-N-((S)-1-(4-(4-methylthiazol-5-yl)phenyl)ethyl)pyrrolidine-2-carboxamide] | < 2.5 | – | – | Dmax [2]: > 75%
6 | CC(C)[C@H](C(=O)N1C[C@H](O)C[C@H]1C(=O)N[C@@H](C)c1ccc(-c2ccnn2C)cc1)c1cc(N2CCC(CN3CCC(O[C@H]4C[C@H](Oc5cc(N6C7CCC6CN(c6cc(-c8ccccc8O)nnc6N)C7)ccn5)C4)CC3)CC2)no1 [compound 631, (2S,4R)-1-((2S)-2-(3-(4-((4-((1r,3r)-3-((4-(3-(3-amino-6-(2-hydroxyphenyl)pyridazin-4-yl)-3,8-diazabicyclo[3.2.1]octan-8-yl)pyridin-2-yl)oxy)cyclobutoxy)piperidin-1-yl)methyl)piperidin-1-yl)isoxazol-5-yl)-3-methylbutanoyl)-4-hydroxy-N-((S)-1-(4-(1-methyl-1H-pyrazol-5-yl)phenyl)ethyl)pyrrolidine-2-carboxamide] | < 2.5 | – | – | Dmax (BRM degradation, SW1573 cells, read-out: Dmax (% degraded)): > 75%
7 | Cc1ncsc1-c1ccc([C@H](C)NC(=O)[C@@H]2C[C@@H](O)CN2C(=O)[C@H](c2cc(OCC[C@H]3CCN(C[C@H]4C[C@H](Oc5cc(N6C7CCC6CN(c6cc(-c8ccccc8O)nnc6N)C7)ccn5)C4)C[C@@H]3C)no2)C(C)C)cc1 (racemic) [compound 578, (2S,4R)-1-((2S)-2-(3-(2-((3R,4R)-1-(((1r,3R)-3-((4-(3-(3-amino-6-(2-hydroxyphenyl)pyridazin-4-yl)-3,8-diazabicyclo[3.2.1]octan-8-yl)pyridin-2-yl)oxy)cyclobutyl)methyl)-3-methylpiperidin-4-yl)ethoxy)isoxazol-5-yl)-3-methylbutanoyl)-4-hydroxy-N-((S)-1-(4-(4-methylthiazol-5-yl)phenyl)ethyl)pyrrolidine-2-carboxamide] | – | – | – | Dmax [4]: > 75%; DC50 [5]: < 2.5 nM
8 | Cc1ncsc1-c1ccc([C@H](C)NC(=O)[C@@H]2C[C@@H](O)CN2C(=O)[C@@H](c2cc(OCCCN3CCN(CCCOc4cc(N5C6CCC5CN(c5cc(-c7ccccc7O)nnc5N)C6)ccn4)CC3)no2)C(C)C)cc1 [compound 385, (2S,4R)-1-((2R)-2-(3-(3-(4-(3-((4-(3-(3-amino-6-(2-hydroxyphenyl)pyridazin-4-yl)-3,8-diazabicyclo[3.2.1]octan-8-yl)pyridin-2-yl)oxy)propyl)piperazin-1-yl)propoxy)isoxazol-5-yl)-3-methylbutanoyl)-4-hydroxy-N-((S)-1-(4-(4-methylthiazol-5-yl)phenyl)ethyl)pyrrolidine-2-carboxamide] | – | > 75 | < 2.5 | –
9 | CC(C)[C@H](C(=O)N1C[C@H](O)C[C@H]1C(=O)N[C@@H](C)c1ccc(-c2nncs2)cc1)c1cc(OCCN2CCC(O[C@H]3C[C@H](Oc4cc(N5C6CCC5CN(c5cc(-c7ccccc7O)nnc5N)C6)ccn4)C3)CC2)no1 [compound 363, (2S,4R)-N-((S)-1-(4-(1,3,4-thiadiazol-2-yl)phenyl)ethyl)-1-((2S)-2-(3-(2-(4-((1r,3S)-3-((4-(3-(3-amino-6-(2-hydroxyphenyl)pyridazin-4-yl)-3,8-diazabicyclo[3.2.1]octan-8-yl)pyridin-2-yl)oxy)cyclobutoxy)piperidin-1-yl)ethoxy)isoxazol-5-yl)-3-methylbutanoyl)-4-hydroxypyrrolidine-2-carboxamide] | – | – | > 30 | –
10 | Cc1ncsc1-c1ccc([C@H](C)NC(=O)[C@@H]2C[C@@H](O)CN2C(=O)[C@@H](c2cc(OCC#CC34CC(CN5CC(Oc6cc(N7C8CCC7CN(c7cc(-c9ccccc9O)nnc7N)C8)ccn6)C5)(C3)C4)no2)C(C)C)cc1 [compound 383, (2S,4R)-1-((2R)-2-(3-((3-(3-((3-((4-(3-(3-amino-6-(2-hydroxyphenyl)pyridazin-4-yl)-3,8-diazabicyclo[3.2.1]octan-8-yl)pyridin-2-yl)oxy)azetidin-1-yl)methyl)bicyclo[1.1.1]pentan-1-yl)prop-2-yn-1-yl)oxy)isoxazol-5-yl)-3-methylbutanoyl)-4-hydroxy-N-((S)-1-(4-(4-methylthiazol-5-yl)phenyl)ethyl)pyrrolidine-2-carboxamide] | – | > 75 | > 30 | –
11 | Cc1ncsc1-c1ccc([C@H](C)NC(=O)[C@@H]2C[C@@H](O)CN2C(=O)[C@@H](c2cc(OCCN3CCC(O[C@H]4C[C@H](Oc5cccc(N6C7CCC6CN(c6cc(-c8ccccc8O)nnc6N)C7)c5)C4)CC3)no2)C(C)C)cc1 [compound 462, (2S,4R)-1-((2R)-2-(3-(2-(4-((1r,3R)-3-(3-(3-(3-amino-6-(2-hydroxyphenyl)pyridazin-4-yl)-3,8-diazabicyclo[3.2.1]octan-8-yl)phenoxy)cyclobutoxy)piperidin-1-yl)ethoxy)isoxazol-5-yl)-3-methylbutanoyl)-4-hydroxy-N-((S)-1-(4-(4-methylthiazol-5-yl)phenyl)ethyl)pyrrolidine-2-carboxamide] | – | > 75 | < 2.5 | –
12 | Cc1ncsc1-c1ccc([C@H](C)NC(=O)[C@@H]2C[C@@H](O)CN2C(=O)[C@@H](c2cc(N3CCC4(CC3)CC(CN3CCC(O[C@H]5C[C@H](Oc6cc(N7C8CCC7CN(c7cc(-c9ccccc9O)nnc7N)C8)ccn6)C5)CC3)C4)no2)C(C)C)cc1 [compound 650, (2S,4R)-1-((2R)-2-(3-(2-((4-((1r,3r)-3-((4-(3-(3-amino-6-(2-hydroxyphenyl)pyridazin-4-yl)-3,8-diazabicyclo[3.2.1]octan-8-yl)pyridin-2-yl)oxy)cyclobutoxy)piperidin-1-yl)methyl)-7-azaspiro[3.5]nonan-7-yl)isoxazol-5-yl)-3-methylbutanoyl)-4-hydroxy-N-((S)-1-(4-(4-methylthiazol-5-yl)phenyl)ethyl)pyrrolidine-2-carboxamide] | > 30 | – | – | –
13 | Cc1ncsc1-c1ccc([C@H](C)NC(=O)[C@@H]2C[C@@H](O)CN2C(=O)[C@H](c2cc(OCC[C@H]3CCN(C[C@H]4C[C@H](Oc5cc(N6C7CCC6CN(c6cc(-c8ccccc8O)nnc6N)C7)ccn5)C4)[C@@H](C)[C@H]3C)no2)C(C)C)cc1 (single isomer, unassigned) [compound 585] | – | – | – | Dmax [4]: > 75%; DC50 [5]: 2.5 to 10 nM
